From ChEMBL document CHEMBL3102725, “Trichodermone, a spiro-cytochalasan with a tetracyclic nucleus (7/5/6/5) skeleton from the plant endophytic fungus Trichoderma gamsii” (J Nat Prod, 2014)

Tested on: HeLa
Assay: Cytotoxicity against human HeLa cells by MTT assay
Type: functional, cell-based

Structure (SMILES) | IC50
CC1=C[C@@H]2/C=C(\C)CC[C@H](O)[C@H](O)/C=C/C(=O)[C@]23C(=O)N[C@@H](CC(C)C)[C@@H]3[C@@H]1C [ASPOCHALASIN D] | 5720 nM
CC(=O)O[C@H]1C(=O)[C@@]2(C)[C@H]([C@H](OC(=O)c3ccccc3)[C@]3(O)C[C@H](OC(=O)[C@H](O)[C@@H](NC(=O)c4ccccc4)c4ccccc4)C(C)=C1C3(C)C)[C@]1(OC(C)=O)CO[C@@H]1C[C@@H]2O [PACLITAXEL] | 2.5 nM
